# Measured values taken from patent publication US8071810B2, “C5a receptor antagonists” (Jerini AG, priority 2005, dated 2011).
# pIC50: −log10 of the molar value.
# Legend:
# C5a receptor [1] = target: T1, C5a receptor (Homo sapiens, UniProt P21730); details: cited from earlier work
# T1 sequence (P21730 1-350): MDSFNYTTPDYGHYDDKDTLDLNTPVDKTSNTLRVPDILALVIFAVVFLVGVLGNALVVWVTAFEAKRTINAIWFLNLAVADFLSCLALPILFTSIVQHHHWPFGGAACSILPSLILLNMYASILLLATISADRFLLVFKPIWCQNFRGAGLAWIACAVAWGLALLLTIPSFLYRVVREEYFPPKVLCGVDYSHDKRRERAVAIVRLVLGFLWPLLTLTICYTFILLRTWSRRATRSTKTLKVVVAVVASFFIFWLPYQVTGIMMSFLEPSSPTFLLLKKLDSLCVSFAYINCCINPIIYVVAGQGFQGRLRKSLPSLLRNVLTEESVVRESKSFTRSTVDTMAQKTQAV
# C5a receptor [2] = target: T1, C5a receptor; details: cited from earlier work; remark: listed apart in the source
# [3] = target: T2, human C5a receptor (CD88) (Homo sapiens, UniProt P21730); test: C5a induced enzyme (glucosaminidase) release assay in RBL cells expressing the human C5a receptor (Example 28); assay type: cell-based; details: inhibition of C5a induced enzyme release, RBL cells with human C5aR; read-out: Activity-range (antagonistic activity, IC50 enzyme release)
# T2 construct: expressed in transfected cells; host or cells: rat basophilic leukemia (RBL) cells, stably transfected
# T2 sequence (P21730 1-350): T1 sequence (P21730 1-350)
# In short: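 Rat basophilic leukemia (RBL) cells expressing human C5a receptor, at 2×10^6 cells/ml, primed with cytochalasin B, then incubated with test compound 10 min at 37 °C.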
# [4] = Stability (shelf life) as solid TFA salt, RP-HPLC (Example 25); assay type: physicochemical; details: light, room temperature, up to 7 days
# Protocol: The fractions containing the desired compound are lyophilized. In this way 1-40 mg of the compounds 11 and 13 are isolated as solid. Due to the basic amino groups the compounds are obtained as TFA salts. 0.5-10 mg of the solid are stored under the influence of light at room temperature to determine their stability over time.
# The conditions were as follows:
# FIG. 1 A): after purification via HPLC (solution in MeCN/H2O/TFA),
# FIG. 1 B) after lyophilization (0 days of storage as solid)
# FIG. 1 C) after 7 days of storage as solid
# C5a receptor [5] = target: T1, C5a receptor; details: cited from earlier work; remark: listed apart in the source
# C5a induced neutropenia = C5a induced neutropenia in gerbils (Example 35); assay type: in vivo, gerbils (Meriones unguiculatus); details: gerbil
# Description: C5a induced neutropenia is a model for shock induced diseases (e.g. septic shock), where amongst others the systemic role of C5a (blood pressure decrease, neutropenia) plays an important role. The reason for the decrease of the neutrophils in the circulation is their binding to the vessel walls due to the C5a stimulus. These processes of neutrophil recruitment are playing an important role in many other diseases like reperfusion injury. […]
# Male gerbils (Meriones unguiculatus) are anaesthesized i.p. with ketamine (80 mg/kg) and xylazine (12 mg/kg). The animals are intubated and a catheter is inserted in the jugular vene and the animals are subjected to the following procedure:
# 1. The gerbils are pre-treated with vehicle or the compounds of the present invention 80 (3 mg/kg) or 131 (1 mg/kg) via i.v. infusion.
# One minute before compound treatment a blood sample is taken.
# 2. 10 minutes after the infusion of the compounds the gerbils are treated i.v. with 100 μg/kg hrC5a. […]
# White blood cell counts are measured with a haematology-cell-counter. […]
# The differential cell count is determined as the sum of neutrophils, eosinophile, easophile, lymphocytes and monocytes from 100 cells. Then, the percentage of neutrophils in relation to all white blood cells is determined. […]
# [6] = Solubility in aqueous HEPES buffer by HPLC (Example 33); assay type: physicochemical; details: kinetic from dmso stock
# Protocol: To determine the solubility the compound to be measured is dissolved (e.g, […] of a 5 mM solution in DMSO) in organic solvent (e.g. 198 μl DMSO) as well as in aqueous buffer solution (e.g. 198 μl HEPES buffer). Both solutions are analyzed via analytical HPLC and the areas under the peaks are compared. The value for the organic solution is taken as 100%.
compound,measurement,setting,value
NC(N)=Nc1ccc(OCCc2ccccc2)c(-c2ccccc2)c1 [Compound 5],activity,C5a receptor [1],0.8 µM
CC(C)Cc1ccc([C@@H](C)C(=O)NCCC[N+]2(C)CCCCC2)cc1.[I-] [Compound 6],activity in a chemotaxis assay,C5a receptor [2],24 µM
"CC(C)c1ccc(N(Cc2ccc(N(C)C)cc2)C(=O)Nc2c(C(C)C)cccc2C(C)C)cc1 [Compound 11, 3-(2,6-diisopropyl-phenyl)-1-(4-dimethylamino-benzyl)-1-(4-isopropyl-phenyl)-urea, reference compound]",pIC50,[3],5.30 to 6.70
same,Stability on storage as solid,[4],not stable
same,binding affinity to the C5a receptor,C5a receptor [5],100 nM
"CCc1ccc(N(C(=O)Nc2c(CC)c(N)cc(Cl)c2CC)[C@@H](C)c2ccc(Cl)cc2)cc1 [compound 80, (S)-3-(3-amino-5-chloro-2,6-diethyl-phenyl)-1-[1-(4-chlor-phenyl)-ethyl]-1-(4-ethyl-phenyl)-urea]",Effect on C5a induced neutropenia,C5a induced neutropenia; 3 mg/kg i.v. infusion 10 min before 100 μg/kg hrC5a,significantly reduces C5a induced neutropenia
same,pIC50,[3],> 7.22
same,solubility,[6],4 µM
"CCc1c(N)cc(Cl)c(CC)c1NC(=O)N(c1ccc(NC)cc1)[C@@H](C)c1ccc(Cl)cc1 [compound 131, (S)-3-(3-amino-5-chloro-2,6-diethyl-phenyl)-1-[1-(4-chloro-phenyl)-ethyl]-1-(4-methylamino-phenyl)-urea]",Effect on C5a induced neutropenia,C5a induced neutropenia; 1 mg/kg i.v. infusion 10 min before 100 μg/kg hrC5a,significantly reduces C5a induced neutropenia
